The target of assay [1] is CYP 3A4 enzyme in human liver microsomes (Homo sapiens, UniProt P08684). The experiment in a line: CYP3A4 inhibition experiment in human liver microsomes. Here is the method:
The inhibitory effects of the test compounds on CYP 3A4T (with testosterone as substrate) and 3A4M (with midazolam as substrate) in human liver microsomes were evaluated in vitro to assess the medication safety of the compounds.
This study used the human liver microsome system and the cytochrome P450 enzyme probe substrate recommended by FDA guidelines for in vitro drug interaction studies to investigate the inhibition of the CYP 3A4 enzyme in human liver microsomes by the test compounds.
Test group (TG): Human liver microsomes were incubated with different concentrations of test compounds, NADPH (final concentration 2.00 mM) and probe substrates of different sub-enzymes (Table 4) for 5 min.
Positive control group (PC): Human liver microsomes were incubated with inhibitors (Table 4), NADPH (final concentration 2.00 mM) and probe substrates of different sub-enzymes (Table 4) for 5 min. Table 4 Probe substrates of sub-enzymes, inhibitors and incubation systems
The system was pre-incubated at 37°C for 5 min, and then 15 µL of 8 mM NADPH solution preheated at 37°C for 5-10 min to start the reaction. After incubation of the 96-well plate at 37°C for 5 min, 180 µL of acetonitrile:methanol (ACN:MeOH=1:1) solution containing internal standard (IS) was added to terminate the reaction. […] 80 µL of the supernatant was taken, added to 120 µL of ultrapure water, shaken evenly, and then detected by LC-MS/MS.
199 µL of 0.2 mg/mL HLM and 1 µL of 1 mM positive control inhibitor (ketoconazole) working solutions were taken and mixed evenly. 30 µL of the drug-containing liver microsome solution was taken and added to a 96-well plate, then 10 µL of substrate working solution (20 µM midazolam) was added, in duplicate. The system was pre-incubated at 37°C for 5 min, and then 15 µL of 8 mM NADPH solution preheated at 37°C for 5-10 min to start the reaction. After incubation of the 96-well plate at 37°C for 5 min, 180 µL of ACN:MeOH(1:1) solution containing IS was added to terminate the reaction. […] 80 µL of the supernatant was taken, added to 120 µL of ultrapure water, shaken evenly, and then detected by LC-MS/MS.
4.2.5.1 The relative activity of CYP450 sub-enzymes at different concentrations was calculated by dividing the peak area ratio (analyte peak area/internal standard peak area) of metabolites in the presence of the test sample or positive control by the peak area ratio of metabolites in the solvent control sample in the absence of the test article or positive control, according to the following formula: [formula] [formula]
4.2.5.2 Half maximal inhibitory concentration (IC50) was obtained by fitting according to the following model formula using Prism software: Y = Bottom + (Top−Bottom)/(1+10^(∧)((LogIC50−X)×HillSlope)) [formula]
X is the test sample concentration converted to logarithm (Log µM), Y is the relative activity (% of NC), Bottom and Top represent the percentage of enzyme activity at the bottom platform and top platform of the curve, respectively, and HillSlope represents the slope; to optimize the fitting effect, the use of other (nonlinear) dose-response models for fitting is not considered as a deviation from the protocol.
On the technique in general: Liver microsomes are a subcellular fraction often used to study metabolism.

The next assay deals with NUGC-3 cells. The assay is described as follows: NUGC-3 cell proliferation assay (CTG, 7 days). In kind it is cell-based, human. The settings on record: Homo sapiens, NUGC-3, 168 h. Summed up:
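Cells (200/well) in 1640 medium with 10% serum exposed to 10-point, 3-fold DMSO dilutions (duplicates) for 7 days at 37°C. Viability read by CellTiter-Glo luminescence; % inhibition normalized to DMSO and blank, IC50 from variable-slope nonlinear fit.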

The target of a further assay is T1, p53-Y220C mutant protein (Homo sapiens, UniProt P04637, Y220C).
T1 construct: The recombinant Y220C p53 DBD protein with his-tag
The assay is described as follows: In vitro DNA binding activity assay (TR-FRET). In kind it is biochemical. Conditions: concentration required to increase the binding activity of protein to DNA by 50%. Summed up: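 SC150, the compound concentration increasing p53-Y220C DNA binding by 50% relative to vehicle, came from background-corrected 665/615 nm TR-FRET ratios. His-tagged DBD and compound were preincubated 60 min at RT before biotin-DNA plus Eu-anti-His/streptavidin-d2 detection overnight in the dark.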
(In general: In TR-FRET formats the signal depends on donor and acceptor labels being close together.)

Setting [2] is: CYP 3A4M IC50, human liver microsomes, midazolam as substrate.
The mark [3] stands for this setting: CYP 3A4T IC50, human liver microsomes, testosterone as substrate.
Setting [4] is: NUGC-3 cell proliferation, 7 days, CTG, read-out: IC50.

We go through five compounds from patent publication EP4737449A1 (Changchun Genescience Pharmaceutical Co., Ltd., priority 2023, dated 2025).

One may read the IC50 as the point on the concentration scale where inhibition reaches its midpoint.

Structures are written as SMILES. Where two headings read alike, the source gives them in different places. A value given as a limit tells only on which side of the number the result lay.

CYP 3A4 enzyme in human liver microsomes, sequence (P08684 whole entry): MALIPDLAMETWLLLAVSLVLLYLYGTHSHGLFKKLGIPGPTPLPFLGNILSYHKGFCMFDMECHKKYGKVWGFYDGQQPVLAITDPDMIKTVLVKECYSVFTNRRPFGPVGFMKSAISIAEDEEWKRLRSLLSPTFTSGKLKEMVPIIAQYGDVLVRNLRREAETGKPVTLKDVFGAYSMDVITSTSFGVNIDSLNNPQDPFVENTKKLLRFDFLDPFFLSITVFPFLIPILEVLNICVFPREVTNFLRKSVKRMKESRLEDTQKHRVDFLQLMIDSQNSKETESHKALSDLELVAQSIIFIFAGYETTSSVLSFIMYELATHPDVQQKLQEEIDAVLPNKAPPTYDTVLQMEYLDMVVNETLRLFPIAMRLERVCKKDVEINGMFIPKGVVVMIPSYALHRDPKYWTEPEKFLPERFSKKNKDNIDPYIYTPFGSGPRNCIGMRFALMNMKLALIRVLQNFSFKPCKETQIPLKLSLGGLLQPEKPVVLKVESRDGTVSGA

Take `CN1CC[C@@H](Nc2cccc3c(CC(F)(F)F)c(C#CCNC(=O)c4cc5n(c4)CCOC5)nn23)[C@@H](F)C1` [Compound 281, N-[3-(7-{[(3S,4R)-3-fluoro-1-methylpiperidin-4-yl]amino}-3-(2,2,2-trifluoroethyl)pyrazolo[1,5-a]pyridin-2-yl)prop-2-yn-1-yl]-3,4-dihydro-1H-pyrrolo[2,1-c][1,4]oxazine-7-carboxamide]: the IC50 in assay [1] (setting [2]) is over 30 µM; in assay [1] (setting [3]), over 30 µM; in the assay on NUGC-3 cells (setting [4]) it was 0.413 µM. The same compound showed an SC150 at p53-Y220C mutant protein of 13 nM.

Turning to `CN1CC[C@@H](Nc2cccc3c(CC(F)(F)F)c(C#CCNC(=O)c4ncn(C(C)(C)C)c4N)nn23)[C@@H](F)C1` [Compound 283, 5-amino-1-tert-butyl-N [3-(7-{[(3S,4R)-3-fluoro-1-methylpiperidin-4-yl]amino}-3-(2,2,2-trifluoroethyl)pyrazolo[1,5-a]pyridin-2-yl)prop-2-yn-1-yl]-1H-pyrazole-4-carboxamide], the results for the IC50 (in assay [1] (setting [2]); in assay [1] (setting [3]); in the assay with NUGC-3 cells) were over 30 µM, 18.1 µM and 1.64 µM, respectively. The compound further yielded an SC150 on p53-Y220C mutant protein of 19 nM.

With `CN1CC[C@@H](Nc2cccc3c(CC(F)(F)F)c(C#CCNC(=O)c4cnn(C56CC(C5)C6)c4N)nn23)[C@@H](F)C1` [Compound 289, 5-amino-1-(dicyclo[1.1.1]pent-1-yl)-N-[3-(7-{[(3S,4R)-3-fluoro-1-methylpiperidin-4-yl]amino}-3-(2,2,2-trifluoroethyl)pyrazolo[1,5-a]pyridin-2-yl)prop-2-yn-1-yl]-1H-pyrazole-4-carboxamide], the IC50 came out at 12.9 µM in assay [1] (setting [2]), 13.2 µM in assay [1] (setting [3]) and 0.182 µM in the assay on NUGC-3 cells. This compound also registered an SC150 on p53-Y220C mutant protein of 5 nM.

As for `CCN1CC[C@@H](Nc2cccc3c(CC(F)(F)F)c(C#CCNC(=O)c4cnn(C(C)(C)C)c4N)nn23)[C@@H](F)C1` [Compound 353, 5-amino-1-tert-butyl-N-[3-(7-{[(3S,4R)-1-ethyl-3-fluoropiperidin-4-yl]amino}-3-(2,2,2-trifluoroethyl)pyrazolo[1,5-a]pyridin-2-yl)prop-2-yn-1-yl]-1H-pyrazole-4-carboxamide], the IC50 in assay [1] (setting [2]) was 22.3 µM; in assay [1] (setting [3]), 26.5 µM; with NUGC-3 cells (setting [4]), 0.152 µM. The compound further gave an SC150 at p53-Y220C mutant protein of 4 nM.

As for `CC(C)N1CC[C@@H](Nc2cccc3c(CC(F)(F)F)c(C#CCNC(=O)c4cnn(C(C)(C)C)c4N)nn23)[C@@H](F)C1` [Compound 354], the IC50 in assay [1] (setting [2]) turned out to be 15.6 µM; in assay [1] (setting [3]), 18.5 µM; in the assay with NUGC-3 cells it was 0.177 µM. The compound further displayed an SC150 at p53-Y220C mutant protein of 3 nM.
